{
  "source": "paper PMC2195584",
  "about": "(The Journal of Experimental Medicine, 1999)",
  "key": {"[1]": {"system": "Lymph node T cells from CD28-deficient mice", "experiment": "Proliferation of retrovirally reconstituted T cells from CD28-deficient mice", "assay_type": "cell-based, mouse", "details": "single stimulus, anti-CD3 or PMA alone; 36-h culture; quadruplicate"}, "[2]": {"system": "c-fos promoter in Jurkat cells", "experiment": "c-fos luciferase reporter, Jurkat cells", "assay_type": "cell-based", "details": "presence and absence of CD28 antibodies, vs wild-type mCD28"}, "c-Src": {"system": "c-Src", "details": "coexpression in 293 cells; cited from earlier work"}},
  "data": [
    {"molecule": "CCCCCCCCCCCCCC(=O)O[C@@H]1[C@@H](C)[C@@]2(O)[C@@H](C=C(CO)C[C@]3(O)C(=O)C(C)=C[C@@H]23)[C@@H]2C(C)(C)[C@]12OC(C)=O", "note": "[PMA]", "values": [
      {"measurement": "proliferation ([3H]thymidine), control retrovirus", "setting": "[1]", "value": "proliferated weakly"}
    ]},
    {"molecule": "mutated form of mCD28: CD28 with alanines substituted for prolines 187 and 190", "values": [
      {"measurement": "induction of c-fos promoter (in words)", "setting": "[2]", "value": "significantly impaired in its ability to induce the c-fos promoter"}
    ]},
    {"molecule": "SIN: SH3 binding protein, SIN (protein, UniProt Q64355 1-560, looked up) Embryonal Fyn-associated …: MAIATSAQLARALYDNTAESPQELSFRRGDVLRVLQREGAGGLDGWCLCSLHGQQGIVPANRVKLLPAGPAPKPSLCPASPTQPGSSCPTPERGCEEQEVYVIPPPARPCSASGLPARSCSPSSDSIYKVPRGNGMQLTASRDVAEVYDVPPNILRAPSSCPYDSPASFSCPVAPVVPQPPREDEAPYDVPLALKPPAELERDPEWEGGREPGPPLYAAPSNLKRASALLNLYEAPEELLANGESRDADEGIYDVPLLGPEPPSPEPPVASSSTDLDTVAQLPTRSSPPQHRPRLPSTESLSRRPLPALPVSEAPAPSPAPSPAPGRKGSIQDRPLPPPPPCLPGYGGLKPEGDPECREVANDPAGPHNEYEGIPMAEEYDYVHLKGVDTAQGSRPLDKAFPVDPELLERGLAERKEALSPEEPLVLSTGDLQLLHFYAGQCQSHYSALQAAVAALVASTQANQPPCLFVPHGKRVVVAAHRLVFVGDTLGRLAASAALRAQVGAAGTMLAQTLRATVLAVKGAALGYPSDTAVQEMARCVAELAGQALRFTTLLDGLLP", "values": [
      {"measurement": "c-Src kinase activity induction", "setting": "c-Src", "value": "can be induced"}
    ]}
  ]
}
